Source: US8614206B2 (Genentech, Inc., priority 2011, dated 2013)
Where two headings read alike, the source gives them in different places.

Assays:
PIM1 = PIM1 (Homo sapiens (Human), UniProt P11309); assay: Pim kinase inhibition, PIM1 LC3K (Example 901); assay type: biochemical
Description: Determination of the Pim kinase activity of a Formula I compound is possible by a number of direct and indirect detection methods.

[1] = test system: MM1.S (multiple myeloma) cells; assay: In vitro cell proliferation, MM1.S multiple myeloma cells (CellTiter-Glo, ATP); assay type: cell-based; settings: read-out: Prolif MM1S ATP (EC50)
Description: BaF3, a murine interleukin-3 dependent pro-B cell line, parental cells, BaF3 PIM1 cells, BaF3 PIM2 cells, and MM1.S (multiple myeloma) cells were seeded at 2 k/well, 5 k/well, 5 k/well, and 10 k/well respectively, in a 384-well plate, at 45 μL/well. Test compound was added at 5 μL/well. BaF3 cells (parental and transfected) were incubated overnight, while MM1.S cells were incubated for 72 hours at 37° C., 5% CO2. […] IC50/EC50 values for the test compound were calculated.

BaF3 parental cells = assay: In vitro cell proliferation, BaF3 parental line + IL3 (CellTiter-Glo); assay type: cell-based, murine; settings: read-out: Prolif BaF3 + IL3 (IC50)
Description: BaF3 parental line was obtained from the DSMZ repository. BaF3 lines transfected with PIM 1 or PIM2 were generated. Mouse IL-3 was purchased from R&D Systems. G418 was purchased from Clontech. Media for BaF3 parental line contained RPMI, 10% FBS, 2 mM L-Glutamine, 2 ng/mL mIL-3. Media for BaF3 PIM1 & 2 lines contained RPMI, 10% FBS, 2 mM L-Glutamine, 250 μg/mL.
BaF3, a murine interleukin-3 dependent pro-B cell line, parental cells, BaF3 PIM1 cells, BaF3 PIM2 cells, and MM1.S (multiple myeloma) cells were seeded at 2 k/well, 5 k/well, 5 k/well, and 10 k/well respectively, in a 384-well plate, at 45 μL/well. Test compound was added at 5 μL/well. BaF3 cells (parental and transfected) were incubated overnight, while MM1.S cells were incubated for 72 hours at 37° C., 5% CO2. CELL TITER GLO® Reagent (Promega) was added at 50 μL/well, the plates were incubated for 30 minutes, and their luminescence read on an HT Analyst. IC50/EC50 values for the test compound were calculated.

[2] = Mus musculus, BaF3, BaF3 parental cells with IL-3, incubated overnight

Sequence of PIM1 (P11309 whole entry): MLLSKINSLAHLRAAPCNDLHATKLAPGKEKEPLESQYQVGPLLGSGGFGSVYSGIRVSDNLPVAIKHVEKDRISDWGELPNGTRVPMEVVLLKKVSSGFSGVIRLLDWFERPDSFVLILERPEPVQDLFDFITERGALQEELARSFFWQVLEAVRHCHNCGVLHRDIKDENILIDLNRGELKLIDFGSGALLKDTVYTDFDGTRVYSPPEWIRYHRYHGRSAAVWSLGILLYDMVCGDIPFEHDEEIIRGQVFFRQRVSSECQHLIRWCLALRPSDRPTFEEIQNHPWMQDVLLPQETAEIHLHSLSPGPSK

Ki (PIM1) [nM] | EC50 ([1]; Homo sapiens, MM1.S, 72 h) [nM] | Structure (SMILES) | also measured
0.018 | – | Nc1sc(-c2c(F)cccc2F)nc1C(=O)Nc1cnn(CC(F)F)c1N1CCC(N)C(O)CC1 (single isomer, unassigned) [Example 399, 5-amino-N-[5-(4-amino-5-hydroxy-azepan-1-yl)-1-(2,2-difluoroethyl)pyrazol-4-yl]-2-(2,6-difluorophenyl)thiazole-4-carboxamide] | EC50 ([1]; 72 hours): 41.9 nM
– | 6400 | Cn1ncc(NC(=O)c2nc(-c3c(F)cccc3F)sc2N)c1N1CCC2NCCOC2CC1 (single isomer, unassigned) [Example 397, N-[5-(3,4,4a,5,6,8,9,9a-octahydro-2H-[1,4]oxazino[2,3-d]azepin-7-yl)-1-methyl-pyrazol-4-yl]-5-amino-2-(2,6-difluorophenyl)thiazole-4-carboxamide] | –
– | 1300 | Cn1ncc(NC(=O)c2nc(-c3c(F)cccc3F)sc2N)c1N1CCC(O)CC(F)(F)C1 (single isomer, unassigned) [Example 371, 5-amino-N-[5-(3,3-difluoro-5-hydroxy-azepan-1-yl)-1-methyl-pyrazol-4-yl]-2-(2,6-difluorophenyl)thiazole-4-carboxamide] | –
0.093 | 118 | CCn1ncc(NC(=O)c2nc(-c3c(F)cccc3F)sc2N)c1N1CCC(N)C(F)CC1 (single isomer, unassigned) [Example 370, 5-amino-N-[5-(4-amino-5-fluoro-azepan-1-yl)-1-ethyl-pyrazol-4-yl]-2-(2,6-difluorophenyl)thiazole-4-carboxamide] | –
0.668 | 202 | CCn1ncc(NC(=O)c2nc(-c3ccccc3F)sc2N)c1N1CCC(N)C(OC)CC1 (stereo not shown) [Example 392, 5-amino-N-[5-(4-amino-5-methoxy-azepan-1-yl)-1-ethyl-pyrazol-4-yl]-2-(2-fluorophenyl)thiazole-4-carboxamide] | –
0.192 | – | CCn1ncc(NC(=O)c2nc(-c3c(F)cccc3F)sc2N)c1N1CCC(N)C(OC)CC1 (single isomer, unassigned) [Example 390, 5-amino-N-[5-(4-amino-5-methoxy-azepan-1-yl)-1-ethyl-pyrazol-4-yl]-2-(2,6-difluorophenyl)thiazole-4-carboxamide] | EC50 ([1]; 72 hours): 147 nM
0.051 | 70.6 | Nc1sc(-c2c(F)cccc2F)nc1C(=O)Nc1cnn(CC(F)F)c1N1CC[C@@H](O)[C@@H](N)CC1 [Example 375, 5-amino-N-(5-((4S,5R)-4-amino-5-hydroxyazepan-1-yl)-1-(2,2-difluoroethyl)-1H-pyrazol-4-yl)-2-(2,6-difluorophenyl)thiazole-4-carboxamide] | –
0.142 | – | Nc1sc(-c2c(F)cccc2F)nc1C(=O)Nc1cnn(CC(F)F)c1N1CCC(N)C(O)CC1 (single isomer, unassigned) [Example 398, 5-amino-N-[5-(4-amino-5-hydroxy-azepan-1-yl)-1-(2,2-difluoroethyl)pyrazol-4-yl]-2-(2,6-difluorophenyl)thiazole-4-carboxamide] | EC50 ([1]; 72 hours): 5700 nM
– | 3500 | Cn1ncc(NC(=O)c2nc(-c3c(F)cccc3F)sc2N)c1C1CC[C@@H](N)[C@@H](F)CC1 (single isomer, unassigned) [Example 381] | –
– | 68.4 | Cn1ncc(NC(=O)c2nc(-c3c(F)cccc3F)sc2N)c1N1CC[C@@H](N)[C@H](F)CC1 [Example 139, 5-amino-N-(5-((4R,5R)-4-amino-5-fluoroazepan-1-yl)-1-methyl-1H-pyrazol-4-yl)-2-(2,6-difluorophenyl)thiazole-4-carboxamide] | –
0.126 | – | COC1CCN(c2c(NC(=O)c3nc(-c4c(F)cccc4F)sc3N)cnn2C2CC2)CCC1N (single isomer, unassigned) [Example 402, 5-amino-N-[5-(4-amino-5-methoxy-azepan-1-yl)-1-cyclopropyl-pyrazol-4-yl]-2-(2,6-difluorophenyl)thiazole-4-carboxamide] | –
0.373 | – | CCn1ncc(NC(=O)c2nc(-c3ccccc3F)sc2N)c1N1CCC(N)C(F)CC1 (single isomer, unassigned) [Example 373, 5-amino-N-[5-(4-amino-5-fluoro-azepan-1-yl)-1-ethyl-pyrazol-4-yl]-2-(2-fluorophenyl)thiazole-4-carboxamide] | –
– | 5700 | CO[C@@H]1[C@H](N)CCN(c2c(NC(=O)c3nc(-c4c(F)cccc4F)sc3N)cnn2C)CC12CC2 [Example 516, 5-amino-N-(5-((8R,9S)-8-amino-9-methoxy-5-azaspiro[2.6]nonan-5-yl)-1-methyl-1H-pyrazol-4-yl)-2-(2,6-difluorophenyl)thiazole-4-carboxamide] | –
0.219 | 606 | CO[C@H]1CCN(c2c(NC(=O)c3nc(-c4c(F)cccc4F)sc3N)cnn2C2CC2)CC[C@@H]1N [Example 365, 5-amino-N-(5-((4S,5S)-4-amino-5-methoxyazepan-1-yl)-1-cyclopropyl-1H-pyrazol-4-yl)-2-(2,6-difluorophenyl)thiazole-4-carboxamide] | –
0.075 | – | Cn1ncc(NC(=O)c2nc(-c3c(F)cccc3F)sc2N)c1N1CCC[C@H](NCC2COC2)CC1 [Example 342, 5-amino-2-(2,6-difluorophenyl)-N-[1-methyl-5-[(4S)-4-(oxetan-3-ylmethylamino)azepan-1-yl]pyrazol-4-yl]thiazole-4-carboxamide] | –

The next lines start with the compound.

Structure (SMILES) | Ki (PIM1) [nM] | EC50 ([1]; Homo sapiens, MM1.S, 72 h) [nM] | also measured
COC1CCC(c2c(NC(=O)c3nc(-c4ccccc4F)sc3N)cnn2C)CCC1N (stereo not shown) [Example 504] | – | 10500 | IC50 (BaF3 parental cells; [2]): 15300 nM
Cn1ncc(NC(=O)c2nc(-c3ncccc3F)sc2N)c1N1CC[C@@H](F)[C@@H](N)CC1 [Example 388, 5-amino-N-(5-((4S,5R)-4-amino-5-fluoroazepan-1-yl)-1-methyl-1H-pyrazol-4-yl)-2-(3-fluoropyridin-2-yl)thiazole-4-carboxamide] | 0.462 | 396 | –
CC(=O)O[C@H]1CCN(c2c(NC(=O)c3nc(-c4c(F)cccc4F)sc3N)cnn2C)CC[C@H]1N [Example 487, [(4S,5R)-5-amino-1-[4-[[5-amino-2-(2,6-difluorophenyl)thiazole-4-carbonyl]amino]-2-methyl-pyrazol-3-yl]azepan-4-yl]acetate] | – | – | IC50 (BaF3 parental cells; [2]): 20100 nM
Cn1ncc(NC(=O)c2nc(-c3c(F)cccc3F)sc2N)c1N1CC[C@@H]2OC(=O)N[C@]2(C)CC1 [Example 509, 5-amino-2-(2,6-difluorophenyl)-N-(1-methyl-5-((3aR,8aS)-3a-methyl-2-oxotetrahydro-2H-oxazolo[5,4-d]azepin-6(7H,8H,8aH)-yl)-1H-pyrazol-4-yl)thiazole-4-carboxamide] | – | – | IC50 (BaF3 parental cells; [2]): > 25000 nM
CCOC1CCN(c2c(NC(=O)c3nc(-c4c(F)cccc4F)sc3N)cnn2C)CCC1N (stereo not shown) [Example 385, 5-amino-N-[5-(4-amino-5-ethoxy-azepan-1-yl)-1-methyl-pyrazol-4-yl]-2-(2,6-difluorophenyl)thiazole-4-carboxamide] | – | – | EC50 ([1]; 72 hours): 182 nM
Cn1ncc(NC(=O)c2nc(-c3c(F)cccc3F)sc2N)c1N1CCC(N)C(C(F)F)CC1 (single isomer, unassigned) [Example 511, 5-amino-N-[5-[4-amino-5-(difluoromethyl)azepan-1-yl]-1-methyl-pyrazol-4-yl]-2-(2,6-difluorophenyl)thiazole-4-carboxamide] | – | – | IC50 (BaF3 parental cells; [2]): 24300 nM
Cn1ncc(NC(=O)c2nc(-c3c(F)cccc3F)sc2N)c1N1CCC(N)C(O)CC1 (single isomer, unassigned) [Example 333, 5-amino-N-[5-(4-amino-5-hydroxy-azepan-1-yl)-1-methyl-pyrazol-4-yl]-2-(2,6-difluorophenyl)thiazole-4-carboxamide] | – | – | IC50 (BaF3 parental cells; BaF3 parental cells with IL-3, incubated overnight): > 25000 nM
Cn1ncc(NC(=O)c2nc(-c3ccccc3F)ccc2N)c1N1CCC(N)CC(F)(F)C1 (racemic) [Example 292, 3-amino-N-(5-(5-amino-3,3-difluoroazepan-1-yl)-1-methyl-1H-pyrazol-4-yl)-6-(2-fluorophenyl)picolinamide] | 0.021 | – | –
Nc1sc(-c2cc(F)ccc2F)nc1C(=O)Nc1cnn(C2CC2)c1N1CCC(N)C(F)CC1 (stereo not shown) [Example 339, 5-amino-N-[5-(4-amino-5-fluoro-azepan-1-yl)-1-cyclopropyl-pyrazol-4-yl]-2-(2,5-difluorophenyl)thiazole-4-carboxamide] | 0.226 | – | –
Cn1ncc(NC(=O)c2nc(-c3ccccc3F)cnc2N)c1N1CCC(N)C(F)CC1 (single isomer, unassigned) [Example 243, 3-amino-N-(5-(4-amino-5-fluoroazepan-1-yl)-1-methyl-1H-pyrazol-4-yl)-6-(2-fluorophenyl)pyrazine-2-carboxamide] | 0.123 | – | –
Cc1nn(C)cc1-c1nc(C(=O)Nc2cnn(C)c2N2CC[C@@H](N)[C@H](F)CC2)c(N)s1 [Example 437, 5-amino-N-[5-[(4R,5R)-4-amino-5-fluoro-azepan-1-yl]-1-methyl-pyrazol-4-yl]-2-(1,3-dimethylpyrazol-4-yl)thiazole-4-carboxamide] | 0.477 | – | –
COC1CCC2(c3c(NC(=O)c4nc(-c5ccccc5F)sc4N)cnn3C)CCC1N2 (stereo not shown) [Example 423, 5-amino-2-(2-fluorophenyl)-N-[5-(2-methoxy-8-azabicyclo[3.2.1]octan-5-yl)-1-methyl-pyrazol-4-yl]thiazole-4-carboxamide] | 0.362 | – | –
Cc1ccc(F)c(-c2nc(C(=O)Nc3cnn(C)c3N3CC[C@H](N)CC(F)(F)C3)c(N)s2)c1 [Example 284, (S)-5-amino-N-(5-(5-amino-3,3-difluoroazepan-1-yl)-1-methyl-1H-pyrazol-4-yl)-2-(2-fluoro-5-methylphenyl)thiazole-4-carboxamide] | 0.015 | – | –
